Experimental data as given in patent publication US20240083885A1, “COMPOSITIONS AND METHODS FOR INHIBITING M PRO PROTEASE ACTIVITY AND FOR PREVENTING AND TREATING SARS-COV-2 INFECTION” (priority 2020, published 2024).
Values joined by “and” are separate entries in the source; they are usually repeats but may differ in a detail not shown here. Equal values may be shown once. Read-outs that look alike come from different tables or passages of the source.

Columns and labels:
in vitro [1] = conditions: African green monkey, CC50 in Vero E6 cells
SARS-CoV-2 M^pro [2] = target: T1, SARS-CoV-2 M^pro (Severe acute respiratory syndrome coronavirus 2 (2019-nCoV) (SARS-CoV-2), UniProt P0DTD1); assay: cell-based
SARS-CoV-2 M^pro [3] = target: T1, SARS-CoV-2 M^pro; assay: biochemical
SARS-CoV-2 [4] = assay: microbe, parasite or virus in culture; type: cell-based; conditions: read-out: antiviral EC50 against SARS-CoV-2 in Caco2-hACE2 cells
SARS-CoV-2 [5] = assay: microbe, parasite or virus in culture; type: cell-based; conditions: Severe acute respiratory syndrome coronavirus 2, Calu-3; read-out: antiviral EC50 against SARS-CoV-2 in Calu-3 cells
SARS-CoV-2 [6] = assay: microbe, parasite or virus in culture; type: cell-based; conditions: read-out: antiviral EC50 against SARS-CoV-2 in Vero E6 cells
SARS-CoV-2 M^pro [7] = target: T1, SARS-CoV-2 M^pro; assay: biochemical; remark: listed apart in the source
in vitro [8] = conditions: human, CC50 in Calu-3 cells
Calu-3 cells = conditions: human, 5 days
caspase-3 = caspase-3 (Homo sapiens (Human), UniProt P42574); assay: Host protease FRET-based enzymatic assay: caspase-3; type: biochemical
Chain of caspase-3 (P42574 29-175 limits assumed): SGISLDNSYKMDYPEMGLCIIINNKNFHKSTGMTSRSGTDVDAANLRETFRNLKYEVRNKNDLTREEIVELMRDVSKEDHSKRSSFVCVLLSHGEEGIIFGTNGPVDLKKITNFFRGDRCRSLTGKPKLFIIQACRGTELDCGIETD
Chain of caspase-3 (P42574 176-277 limits assumed): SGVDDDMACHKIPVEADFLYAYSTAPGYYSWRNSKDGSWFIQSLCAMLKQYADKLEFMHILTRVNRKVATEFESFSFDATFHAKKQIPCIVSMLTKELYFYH
Protocol: (§1) Enzymatic reactions against host proteases (Calpain I, Cathepisn K, Cathespsin L, Caspase-3 and Trypisn) were carried out as previously described (see, Xia, Z.; et al., ACS Pharmacol. Transl. Sci. 2021). Cathepsin B assay reaction was carried out as follows: Cathepsin B (catalog no. CTB-H5222) was diluted into 100 nM final concentration in a buffer containing 20 mM sodium acetate pH5.5, 1 mM EDTA and 2 mM DTT and the mixture was incubated for 30 min at 30° C. Activated Cathepsin B was further diluted to 500 pm in the reaction buffer (100 mM MES pH6.0, 1 mM EDTA, 2 mM DTT and 0.01% TWEEN 20).

cathepsin K = cathepsin K (Homo sapiens (Human), UniProt P43235); type: biochemical
Chain of cathepsin K (P43235 115-329 limits assumed): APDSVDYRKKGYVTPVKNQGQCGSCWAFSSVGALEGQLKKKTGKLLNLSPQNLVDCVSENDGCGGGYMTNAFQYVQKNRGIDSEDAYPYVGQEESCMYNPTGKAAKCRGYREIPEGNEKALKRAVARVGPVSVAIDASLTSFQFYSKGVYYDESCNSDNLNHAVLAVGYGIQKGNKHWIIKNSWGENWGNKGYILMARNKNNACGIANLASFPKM

Cathepsin B = Cathepsin B (Homo sapiens (Human), UniProt P07858); assay: Host protease FRET-based enzymatic assay: cathepsin B; type: biochemical
Protocol: as §1

Cathepsin L [9] = target: T2, Cathepsin L (Homo sapiens (Human), UniProt P07711); assay: Host protease FRET-based enzymatic assay: cathepsin L; type: biochemical
T2 sequence (P07711 114-333 limits assumed): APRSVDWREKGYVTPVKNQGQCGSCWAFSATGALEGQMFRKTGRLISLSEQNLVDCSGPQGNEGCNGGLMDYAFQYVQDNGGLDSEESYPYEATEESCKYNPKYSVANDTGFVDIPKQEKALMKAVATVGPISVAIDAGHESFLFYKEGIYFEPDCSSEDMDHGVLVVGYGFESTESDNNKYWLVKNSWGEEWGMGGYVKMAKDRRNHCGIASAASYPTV
Protocol: The cathepsin L enzymatic assay was carried out as follows: human liver cathepsin L (EMD Millipore 219402) was activated by incubating at reaction buffer (20 mM sodium acetate, 1 mM EDTA and 5 mM DTT pH5.5) for 30 min at 30° C. Upon activation, the assay was assembled in 96-well plates with 100 μl of 300 pM cathepsin L protein in cathepsin L reaction buffer. Then 1 μl testing compound at various concentrations was added to each well and incubated at 30° C. for 30 min. The enzymatic reaction was initiated by adding 1 μl of 100 μM FRET substrate Z-Phe-Arg-AMC (the final substrate concentration is about 1 μM). The reaction was monitored in a Cytation 5 image reader with filters for excitation at 360/40 nm and emission at 460/40 nm at 30° C. for 1 hr. The IC50 values were calculated as described in above section.
as §1

calpain I [10] = target: T3, calpain I (Homo sapiens (Human), UniProt P07384); conditions: read-out: Additional off targets: Calpain I IC50; cited from earlier work
calpain I [11] = target: T3, calpain I; assay: Host protease FRET-based enzymatic assay: calpain I; type: biochemical
Protocol: as §1

trypsin = assay: Host protease FRET-based enzymatic assay: trypsin; type: biochemical
Cathepsin L [12] = target: T2, Cathepsin L; conditions: read-out: Cathepsin L IC50; cited from earlier work
SARS-CoV-2 M^pro [13] = target: T1, SARS-CoV-2 M^pro; assay: biochemical; type: binding
SARS-CoV-2 M^pro [14] = target: T1, SARS-CoV-2 M^pro; type: binding
[15] = target: SARS-CoV-2 papain-like protease (PL^pro) (Severe acute respiratory syndrome coronavirus 2 (2019-nCoV) (SARS-CoV-2), UniProt P0DTD1); assay: biochemical
SARS-CoV M^pro = SARS-CoV M^pro (Severe acute respiratory syndrome coronavirus (SARS-CoV), UniProt P0C6X7); assay: biochemical
[16] = Cytotoxicity in Vero E6 cells (neutral red uptake); conditions: African green monkey, CC50 in Vero E6 cells
[17] = read-out: IC50 against SARS-CoV-2 M^pro
[18] = Severe acute respiratory syndrome coronavirus 2
[19] = Severe acute respiratory syndrome coronavirus 2, Vero C1008

C[C@H](NC(=O)[C@@H](c1cccnc1)N(C(=O)C(Cl)Cl)c1ccc(-c2ccccc2)cc1)c1ccc(Br)cc1 [Jun9-90-3R]
CC50 at 5 days (in vitro [1]): > 100000 nM
EC50 (SARS-CoV-2 M^pro [2]): 910 nM
IC50 (SARS-CoV-2 M^pro [3]; [17]): 0.3 µM
EC50 (SARS-CoV-2 [4]; [18]): 3240 nM
EC50 (SARS-CoV-2 [5]): 2000 nM
EC50 (SARS-CoV-2 [6]; [19]): 2070 nM
kinact/KI (SARS-CoV-2 M^pro [7]): 1540 M⁻¹ s⁻¹

C[C@H](NC(=O)C(c1cccnc1)N(C(=O)CCl)c1ccc(-c2ccccc2)cc1)c1ccccc1 (stereo partly drawn) [Jun9-54-1, 2-(N-{[1,1′-biphenyl]-4-yl}-2-chloroacetamido)-N-[(1S)-1-phenylethyl]-2-(pyridin-3-yl)acetamide]
CC50 at 5 days (in vitro [8]): < 2000 nM
CC50 (Calu-3 cells): < 3500 nM
IC50 (SARS-CoV-2 M^pro [3]; [17]): 0.17 µM

CC(C)C[C@H](NC(=O)OCc1ccccc1)C(=O)N[C@@H](CC1CCNC1=O)C(O)S(=O)(=O)[O-].[Na+] (some centres unmarked) [GC-376, reference compound]
IC50 (caspase-3; read-out: inhibition of caspase-3 (IC50)): > 20000 nM
inhibition of cathepsin K (cathepsin K): potent inhibition
inhibition of cathepsin B (Cathepsin B): potent inhibition
inhibition of cathepsin L (IC50) (Cathepsin L [9]): potent inhibition
CC50 (Vero E6 cells): > 125000 nM
IC50 (calpain I [10]): 74 nM
EC50 (SARS-CoV-2 [4]; Caco2-hACE2 cells): 2900 nM
inhibition of calpain I (calpain I [11]): potent inhibition
EC50 (SARS-CoV-2 [6]): 1510 nM
IC50 (Cathepsin L [12]): 0.99 nM

C[C@H](NC(=O)C(c1cccnc1)N(C(=O)c1ccco1)c1ccc(-c2ccccc2)cc1)c1ccccc1 (single isomer, unassigned) [Compound 23R]
Kd (SARS-CoV-2 M^pro [13]): 9430 nM
binding to SARS-CoV-2 M^pro in native mass spectrometry (SARS-CoV-2 M^pro [14]): dose-dependent binding
IC50 ([15]; IC50 against SARS-CoV-2 papain-like protease (PL^pro)): > 20 µM
IC50 ([15]; SARS-CoV-2 PL^pro IC50 (μM)): > 60 µM
change of IC50 with pre-incubation time (SARS-CoV-2 M^pro [3]): did not lead to significant changes of the IC50 value
IC50 (SARS-CoV-2 M^pro [3]; IC50 against SARS-CoV-2 M^pro): 0.15 µM and 0.13 µM
EC50 (SARS-CoV-2 M^pro [3]; SARS-COV-2 main protease enzymatic inhibition (separated diastereomers, printed as EC50)): 150 nM
IC50 (SARS-CoV-2 M^pro [3]; SARS-CoV-2 M^pro IC50 (μM)): 0.15 ± 0.03 µM
IC50 (SARS-CoV M^pro): 270 ± 30 nM

C[C@H](NC(=O)[C@@H](c1cccnc1)N(C(=O)C(Cl)Cl)c1ccc(-c2ccccc2)cc1)c1ccccc1 [Jun9-62-2R, N-([1,1′-biphenyl]-4-yl)-2,2-dichloro-N-((R)-2-oxo-2-(((S)-1-phenylethyl)amino)-1-(pyridin-3-yl)ethyl)acetamide]
inhibition of caspase-3 (IC50) (caspase-3): did not show potent inhibition
CC50 at 5 days [16]: > 100000 nM
inhibition of cathepsin K (cathepsin K): did not show potent inhibition
EC50 (SARS-CoV-2 M^pro [2]): 960 nM
inhibition of cathepsin B (Cathepsin B): did not show potent inhibition
inhibition of cathepsin L (IC50) (Cathepsin L [9]): did not show potent inhibition
change of IC50 with pre-incubation time (SARS-CoV-2 M^pro [3]): longer pre-incubation time gave lower IC50 values
EC50 (SARS-CoV-2 [4]; [18]): 2050 nM
inhibition of calpain I (calpain I [11]): did not show potent inhibition
EC50 (SARS-CoV-2 [6]; [19]): 900 nM
inhibition of trypsin (IC50) (trypsin): did not show potent inhibition
